We go through three compounds from patent US12644097B2, “Differentiation of trophectoderm lineage cells from pluripotent stem cells” (The United States of America, as represented by the …, priority 2020, dated 2026).

The subject of assay [1] is trophoblast stem-like cells. The assay is described as follows: Passaging of trophoblast stem-like cells in TE3 medium with or without Chroman 1 or CEPT supplementation. The format is cell-based, human. As to conditions: additional 25 nM Chroman 1, alone or as component of CEPT, in TE3 medium (total 50 nM Chroman 1) for first 24 hours after passaging; WA09-derived cells, reproduced with JHU191i, JHU198i, MCW032i, WA07. How it is done: To generate self-renewing trophoblast stem-like cells from the syncytiotrophoblast-like structures, the syncytiotrophoblast-like structures were cultured in TE3 medium: TE2 medium supplemented with 300 nM CHIR98014, 100 ng/ml EGF, 50 ng/ml HGF, 80 ng/ml R-spondin 1, 50 ng/ml R-spondin 3, 2.5 μM prostaglandin E2 and 25 nM Chroman 1. Trophoblast stem-like cells appeared in the cultures and started proliferating after a very short time following the start of the culturing into TE3 medium. The cells created compact epithelial-like colonies with cobblestone morphology and clearly defined border. The individual cells gradually became more compact. This morphological transformation was most obvious at passage 3 performed in TE3 medium.
The trophoblast stem-like cells were cultured in TE3 medium with or without CEPT supplementation, and also with or without Chroman 1 supplementation. For Chroman 1 or CEPT supplementation, when the trophoblast stem-like cells were passaged, the cells were seeded into TE3 medium supplemented with either an additional 25 nM Chroman 1 (for Chroman 1 supplementation) or CEPT containing 25 nM Chroman 1 (for CEPT supplementation). Since TE3 medium already contained 25 nM Chroman 1, only another 25 nM was added either alone or as a component of CEPT, so that the total concentration of Chroman 1 in TE3 medium was 50 nM for the first 24 hours after passaging. […]

For assay [2] the following is noted: cited from earlier work; for IC50: as described in Sidrauski et al. eLIFE 2:e00498 (2013).

Regarding `COc1ccc2c(c1)C[C@H](C(=O)Nc1ccc(-c3cn[nH]c3)cc1OCCN(C)C)CO2` [Chroman 1, (3S)—N-{2-[2-(Dimethylamino)ethoxy]-4-(1H-pyrazol-4-yl)phenyl}-6-methoxy-3,4-dihydro-2H-1-benzopyran-3-carboxamide], in assay [1], the “effect of supplementation at passaging on trophoblast stem-like cells” value is given as “benefited”. As for `O=C(COc1ccc(Cl)cc1)NC1CCC(NC(=O)COc2ccc(Cl)cc2)CC1` (stereo not drawn) [cis-ISRIB], the IC50 – broadly, the midpoint of a concentration-inhibition curve – in assay [2] was 600 nM.

With `O=C(COc1ccc(Cl)cc1)N[C@H]1CC[C@H](NC(=O)COc2ccc(Cl)cc2)CC1` [trans-ISRIB, N,N′-((1r,4r)-cyclohexane-1,4-diyl)bis(2-(4-chlorophenoxy)acetamide)], in assay [2], the 50% inhibitory concentration (IC50) was 5 nM. In assay [2] (trans-ISRIB more potent than cis-ISRIB, Sidrauski et al. 2013), the “potency of trans-ISRIB relative to cis-ISRIB” value was 100 fold.
